O=C1c2cccc(O)c2C(=O)c2c(O)cc(CO)cc21
solubility (mole fraction) (in ethanol, 278.15 K): 1.72e-05
solubility (mole fraction) (in ethanol, 283.15 K): 2.11e-05
solubility (mole fraction) (in ethanol, 288.15 K): 2.45e-05
solubility (mole fraction) (in ethanol, 293.15 K): 3.09e-05
solubility (mole fraction) (in ethanol, 298.15 K): 3.74e-05
solubility (mole fraction) (in ethanol, 303.15 K): 4.36e-05
solubility (mole fraction) (in ethanol, 308.15 K): 5.05e-05
solubility (mole fraction) (in ethanol, 313.15 K): 6.2e-05
solubility (mole fraction) (in ethanol, 318.15 K): 7.56e-05
solubility (mole fraction) (in methanol, 278.15 K): 1.66e-06
solubility (mole fraction) (in methanol, 283.15 K): 2.23e-06
solubility (mole fraction) (in methanol, 288.15 K): 3.1e-06
solubility (mole fraction) (in methanol, 293.15 K): 4.29e-06
solubility (mole fraction) (in methanol, 298.15 K): 5.39e-06
solubility (mole fraction) (in methanol, 303.15 K): 7.71e-06
solubility (mole fraction) (in methanol, 308.15 K): 1.13e-05
solubility (mole fraction) (in methanol, 313.15 K): 1.6e-05
solubility (mole fraction) (in methanol, 318.15 K): 2.33e-05
solubility (mole fraction) (in n-butanol, 278.15 K): 4.59e-05
solubility (mole fraction) (in n-butanol, 283.15 K): 5.17e-05
solubility (mole fraction) (in n-butanol, 288.15 K): 6.49e-05
solubility (mole fraction) (in n-butanol, 293.15 K): 7.71e-05
solubility (mole fraction) (in n-butanol, 298.15 K): 9.05e-05
solubility (mole fraction) (in n-butanol, 303.15 K): 0.000102
solubility (mole fraction) (in n-butanol, 308.15 K): 0.000122
solubility (mole fraction) (in n-butanol, 313.15 K): 0.000137
solubility (mole fraction) (in n-butanol, 318.15 K): 0.00016
solubility (mole fraction) (in n-pentanol, 278.15 K): 7e-05
solubility (mole fraction) (in n-pentanol, 283.15 K): 8.33e-05
solubility (mole fraction) (in n-pentanol, 288.15 K): 0.0001
solubility (mole fraction) (in n-pentanol, 293.15 K): 0.000118
solubility (mole fraction) (in n-pentanol, 298.15 K): 0.000138
solubility (mole fraction) (in n-pentanol, 303.15 K): 0.000158
solubility (mole fraction) (in n-pentanol, 308.15 K): 0.00018
solubility (mole fraction) (in n-pentanol, 313.15 K): 0.000207
solubility (mole fraction) (in n-pentanol, 318.15 K): 0.000245
solubility (mole fraction) (in n-propanol, 278.15 K): 1.82e-05
solubility (mole fraction) (in n-propanol, 283.15 K): 2.49e-05
solubility (mole fraction) (in n-propanol, 288.15 K): 3.07e-05
solubility (mole fraction) (in n-propanol, 293.15 K): 4e-05
solubility (mole fraction) (in n-propanol, 298.15 K): 5.26e-05
solubility (mole fraction) (in n-propanol, 303.15 K): 6.56e-05
solubility (mole fraction) (in n-propanol, 308.15 K): 7.38e-05
solubility (mole fraction) (in n-propanol, 313.15 K): 9.21e-05
solubility (mole fraction) (in n-propanol, 318.15 K): 0.000116
solubility (mole fraction) (in sec-butanol, 278.15 K): 1.62e-05
solubility (mole fraction) (in sec-butanol, 283.15 K): 2.05e-05
solubility (mole fraction) (in sec-butanol, 288.15 K): 2.71e-05
solubility (mole fraction) (in sec-butanol, 293.15 K): 3.67e-05
solubility (mole fraction) (in sec-butanol, 298.15 K): 4.52e-05
solubility (mole fraction) (in sec-butanol, 303.15 K): 5.44e-05
solubility (mole fraction) (in sec-butanol, 308.15 K): 6.76e-05
solubility (mole fraction) (in sec-butanol, 313.15 K): 8.02e-05
solubility (mole fraction) (in sec-butanol, 318.15 K): 9.79e-05
solubility (mole fraction) (in water, 278.15 K): 2.2e-07
solubility (mole fraction) (in water, 283.15 K): 3.21e-07
solubility (mole fraction) (in water, 288.15 K): 4.43e-07
solubility (mole fraction) (in water, 293.15 K): 5.69e-07
solubility (mole fraction) (in water, 298.15 K): 8.07e-07
solubility (mole fraction) (in water, 303.15 K): 1.21e-06
solubility (mole fraction) (in water, 308.15 K): 1.64e-06
solubility (mole fraction) (in water, 313.15 K): 2.22e-06
solubility (mole fraction) (in water, 318.15 K): 2.82e-06
